# Assay results as given in patent US12319664B2, “Herbicidally active 3-phenylisoxazoline-5-carboxamides of cyclopentenylcarboxylic acid derivatives” (Bayer Aktiengesellschaft, priority 2018, dated 2025).
# Legend:
# HORMU [1] = experiment: Pre-emergence herbicidal action against HORMU; assay type: in vivo, Hordeum murinum; settings: application rate 80 g/ha
# Source text: (§1) 1. Pre-emergence herbicidal action against harmful plants and crop plant compatibility Seeds of monocotyledonous and dicotyledonous weed plants and crop plants are placed in plastic or wood-fibre pots and covered with soil. The compounds of the invention, formulated in the form of wettable powders (WP) or as emulsion concentrates (EC), are then applied onto the surface of the covering soil as aqueous suspension or emulsion with addition of 0.5% additive at a water application rate of 600 l/ha (converted). After the treatment, the pots are placed in a greenhouse and kept under good growth conditions for the trial plants. After about 3 weeks, the effect of the preparations is scored visually in comparison with untreated controls as percentages. For example, 100% activity=the plants have died, 0% activity=like control plants. [table]
# HORMU [2] = experiment: Post-emergence herbicidal action against HORMU; assay type: in vivo, Hordeum murinum; settings: application rate 80 g/ha
# Summary of the method: (§2)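 Activity was scored by eye roughly 3 weeks post-treatment relative to untreated plants, on a scale where 0% equals control and 100% equals dead plants. Treatment: spray onto green parts at one-leaf stage (2–3 weeks from sowing, sandy loam, greenhouse), WP/EC formulations with 0.5% additive, 600 l/ha water.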
# LOLRI [3] = experiment: Post-emergence herbicidal action against LOLRI; assay type: in vivo, Lolium rigidum; settings: application rate 80 g/ha, rated visually after about 3 weeks
# Summary of the method: as §2
# STEME [4] = experiment: Pre-emergence herbicidal action against STEME; assay type: in vivo, Stellaria media; settings: application rate 80 g/ha
# Source text: as §1
# AVEFA [5] = experiment: Pre-emergence herbicidal action against AVEFA; assay type: in vivo, Avena fatua; settings: application rate 80 g/ha, scored visually after about 3 weeks vs untreated controls (100% = plants have died, 0% = like control plants)
# Source text: as §1
# ALOMY [6] = experiment: Pre-emergence herbicidal action against ALOMY; assay type: in vivo, Alopecurus myosuroides; settings: application rate 80 g/ha, scored visually after about 3 weeks vs untreated controls (100% = plants have died, 0% = like control plants)
# Source text: as §1
# VIOTR [7] = experiment: Pre-emergence herbicidal action against VIOTR; assay type: in vivo, Viola tricolor; settings: application rate 80 g/ha
# Source text: as §1
# AMARE [8] = experiment: Pre-emergence herbicidal action against AMARE; assay type: in vivo, Amaranthus retroflexus; settings: application rate 80 g/ha
# Source text: as §1
# LOLRI [9] = experiment: Pre-emergence herbicidal action against LOLRI; assay type: in vivo, Lolium rigidum; settings: application rate 80 g/ha, scored visually after about 3 weeks vs untreated controls (100% = plants have died, 0% = like control plants)
# Source text: as §1
# STEME [10] = experiment: Post-emergence herbicidal action against STEME; assay type: in vivo, Stellaria media; settings: application rate 80 g/ha, rated visually about 3 weeks after treatment
# Summary of the method: as §2
# SETVI [11] = experiment: Pre-emergence herbicidal action against SETVI; assay type: in vivo, Setaria viridis; settings: application rate 80 g/ha, scored visually after about 3 weeks vs untreated controls (100% = plants have died, 0% = like control plants)
# Source text: as §1
# POLCO [12] = experiment: Post-emergence herbicidal action against POLCO; assay type: in vivo, Polygonum convolvulus; settings: application rate 80 g/ha, rated visually about 3 weeks after treatment
# Summary of the method: as §2
# ECHCG [13] = experiment: Post-emergence herbicidal action against ECHCG; assay type: in vivo, Echinochloa crus-galli; settings: application rate 80 g/ha, rated visually after about 3 weeks
# Summary of the method: as §2
# AVEFA [14] = experiment: Post-emergence herbicidal action against AVEFA; assay type: in vivo, Avena fatua; settings: application rate 80 g/ha, rated visually after about 3 weeks
# Summary of the method: as §2
# ALOMY [15] = experiment: Post-emergence herbicidal action against ALOMY; assay type: in vivo, Alopecurus myosuroides; settings: application rate 80 g/ha, rated visually after about 3 weeks
# Summary of the method: as §2
# AMARE [16] = experiment: Post-emergence herbicidal action against AMARE; assay type: in vivo, Amaranthus retroflexus; settings: application rate 80 g/ha, rated visually about 3 weeks after treatment
# Summary of the method: as §2
# ECHCG [17] = experiment: Pre-emergence herbicidal action against ECHCG; assay type: in vivo, Echinochloa crus-galli; settings: application rate 80 g/ha, scored visually after about 3 weeks vs untreated controls (100% = plants have died, 0% = like control plants)
# Source text: as §1
# VIOTR [18] = experiment: Post-emergence herbicidal action against VIOTR; assay type: in vivo, Viola tricolor; settings: application rate 80 g/ha, rated visually about 3 weeks after treatment
# Summary of the method: as §2
# SETVI [19] = experiment: Post-emergence herbicidal action against SETVI; assay type: in vivo, Setaria viridis; settings: application rate 80 g/ha, rated visually after about 3 weeks
# Summary of the method: as §2
# VERPE [20] = experiment: Post-emergence herbicidal action against VERPE; assay type: in vivo, Veronica persica; settings: application rate 80 g/ha
# Summary of the method: as §2
# PHBPU [21] = experiment: Post-emergence herbicidal action against PHBPU; assay type: in vivo, Pharbitis purpurea; settings: application rate 80 g/ha, rated visually about 3 weeks after treatment
# Summary of the method: as §2
# POLCO [22] = experiment: Pre-emergence herbicidal action against POLCO; assay type: in vivo, Polygonum convolvulus; settings: application rate 80 g/ha
# Source text: as §1
# VERPE [23] = experiment: Pre-emergence herbicidal action against VERPE; assay type: in vivo, Veronica persica; settings: application rate 80 g/ha
# Source text: as §1
# ABUTH = experiment: Post-emergence herbicidal action against ABUTH; assay type: in vivo, Abutilon theophrasti; settings: application rate 80 g/ha, rated visually about 3 weeks after treatment
# Summary of the method: as §2
# PHBPU [24] = experiment: Pre-emergence herbicidal action against PHBPU; assay type: in vivo, Pharbitis purpurea; settings: application rate 80 g/ha
# Source text: as §1
# MATIN = experiment: Post-emergence herbicidal action against MATIN; assay type: in vivo, Matricaria inodora; settings: application rate 80 g/ha, rated visually about 3 weeks after treatment
# Summary of the method: as §2
Compound,Herbicidal action against [%] HORMU (HORMU [1]) [%],Herbicidal action against [%] HORMU (HORMU [2]) [%],Herbicidal action against [%] LOLRI (LOLRI [3]) [%],Herbicidal action against [%] STEME (STEME [4]) [%],Herbicidal action against [%] AVEFA (AVEFA [5]) [%],Herbicidal action against [%] ALOMY (ALOMY [6]) [%],Herbicidal action against [%] VIOTR (VIOTR [7]) [%],Herbicidal action against [%] AMARE (AMARE [8]) [%],Herbicidal action against [%] LOLRI (LOLRI [9]) [%],Herbicidal action against [%] STEME (STEME [10]) [%],Herbicidal action against [%] SETVI (SETVI [11]) [%],Herbicidal action against [%] ECHCG (ECHCG [13]) [%],Herbicidal action against [%] AVEFA (AVEFA [14]) [%],Herbicidal action against [%] ALOMY (ALOMY [15]) [%],further results
CCOC(=O)C1=CC[C@@H](NC(=O)C2(C)CC(c3cccc(F)c3)=NO2)C1 (stereo partly shown) [III-05],80,90,80,–,–,–,–,–,–,–,–,–,–,–,–
CC(C)ONC(=O)[C@H]1C=C[C@@H](NC(=O)C2(C)CC(c3cccc(F)c3)=NO2)C1 (stereo partly shown) [II-05],–,–,–,90,–,–,–,–,–,–,–,–,–,–,–
CN(C)NC(=O)C1=CCC(NC(=O)C2(C)CC(c3cccc(F)c3)=NO2)C1 (mixture of isomers) [IV-05],–,–,–,90,80,80,100,–,–,–,–,–,–,–,–
CCOC(=O)[C@H]1C=C[C@@H](NC(=O)C2(C)CC(c3cccc(F)c3)=NO2)C1 (stereo partly shown) [Example I-005],–,–,–,–,–,–,–,80,–,–,–,–,–,–,–
CONC(=O)C1=CCC(NC(=O)C2(C)CC(c3cccc(F)c3)=NO2)C1 (mixture of isomers) [IV-04],90,90,90,90,90,90,–,90,100,80,100,80,90,90,Herbicidal action against [%] POLCO (POLCO [12]): 80%; Herbicidal action against [%] AMARE (AMARE [16]): 80%; Herbicidal action against [%] ECHCG (ECHCG [17]): 90%; Herbicidal action against [%] VIOTR (VIOTR [18]): 80%; Herbicidal action against [%] SETVI (SETVI [19]): 80%
CC1(C(=O)NC2C=CC(C(=O)NS(C)(=O)=O)C2)CC(c2cccc(F)c2)=NO1 (mixture of isomers) [II-13],–,–,–,100,–,–,–,–,–,–,–,–,–,–,–
CC1(C(=O)N[C@H]2C=C[C@@H](C(=O)N3CCCO3)C2)CC(c2cc(F)cc(F)c2)=NO1 (stereo partly shown) [II-06],100,80,90,90,90,90,100,100,100,80,100,80,80,90,Herbicidal action against [%] VERPE (VERPE [20]): 80%; Herbicidal action against [%] PHBPU (PHBPU [21]): 80%; Herbicidal action against [%] POLCO (POLCO [22]): 80%; Herbicidal action against [%] VERPE (VERPE [23]): 90%; Herbicidal action against [%] POLCO (POLCO [12]): 80%; Herbicidal action against [%] ABUTH (ABUTH): 80%; Herbicidal action against [%] AMARE (AMARE [16]): 80%; Herbicidal action against [%] ECHCG (ECHCG [17]): 90%; Herbicidal action against [%] SETVI (SETVI [19]): 80%
"CC1(C(=O)N[C@@H]2CC=C(C(=O)O)C2)CC(c2cccc(F)c2)=NO1 (mixture of isomers) [III-01, (4R)-4-[[[(5SR)-3-(3-fluorophenyl)-5-methyl-4H-1,2-oxazol-5-yl]carbonyl]amino]cyclopentene-1-carboxylic acid]",80,–,–,–,–,–,–,–,–,–,–,–,80,–,Herbicidal action against [%] VERPE (VERPE [23]): 90%
CCONC(=O)[C@H]1C=C[C@@H](NC(=O)C2(C)CC(c3cccc(F)c3)=NO2)C1 (stereo partly shown) [II-03],–,–,–,–,–,–,90,–,–,–,–,–,–,–,–
CN(C)NC(=O)C1=CCC(NC(=O)C2(C)CC(c3cccc(F)c3)=NO2)C1 (mixture of isomers) [IV-06],90,90,80,90,–,100,100,80,100,80,100,80,90,90,Herbicidal action against [%] POLCO (POLCO [22]): 80%; Herbicidal action against [%] POLCO (POLCO [12]): 80%; Herbicidal action against [%] PHBPU (PHBPU [24]): 90%; Herbicidal action against [%] AMARE (AMARE [16]): 80%; Herbicidal action against [%] ECHCG (ECHCG [17]): 90%; Herbicidal action against [%] VIOTR (VIOTR [18]): 90%; Herbicidal action against [%] SETVI (SETVI [19]): 80%
"COC(=O)C1=CC[C@@H](NC(=O)C2(C)CC(c3cccc(F)c3)=NO2)C1 (mixture of isomers) [III-03, methyl (4R)-4-[[[(5SR)-3-(3-fluorophenyl)-5-methyl-4H-1,2-oxazol-5-yl]carbonyl]amino]cyclopentene-1-carboxylate]",–,90,80,–,–,–,–,–,–,–,–,–,90,–,Herbicidal action against [%] VERPE (VERPE [23]): 80%
CN(C)C(=O)C1=CCC(NC(=O)C2(C)CC(c3cccc(F)c3)=NO2)C1 (mixture of isomers) [IV-01],90,–,–,90,90,90,–,90,100,–,90,–,–,–,Herbicidal action against [%] POLCO (POLCO [22]): 90%
"CONC(=O)C1=CC[C@@H](NC(=O)C2(C)CC(c3cccc(F)c3)=NO2)C1 (mixture of isomers) [IV-03, (5SR)-3-(3-Fluorophenyl)-N-[(1R)-3-[(methoxyamino)carbonyl]cyclopent-3-en-1-yl]-5-methyl-4H-1,2-oxazole-5-carboxamide]",–,–,90,–,–,90,–,–,–,–,–,–,–,–,–
"COC(=O)[C@@H]1C=C[C@H](NC(=O)C2(C(F)(F)F)CC(c3cc(F)cc(C#N)c3)=NO2)C1 (single isomer, unassigned) [Example I-098]",–,90,90,–,–,–,–,–,–,90,–,90,100,100,Herbicidal action against [%] VERPE (VERPE [20]): 80%; Herbicidal action against [%] PHBPU (PHBPU [21]): 80%; Herbicidal action against [%] POLCO (POLCO [12]): 80%; Herbicidal action against [%] ABUTH (ABUTH): 80%; Herbicidal action against [%] MATIN (MATIN): 80%; Herbicidal action against [%] AMARE (AMARE [16]): 80%; Herbicidal action against [%] VIOTR (VIOTR [18]): 80%; Herbicidal action against [%] SETVI (SETVI [19]): 80%
CC1(C(=O)NC2C=CC(C(=O)N3CCCCO3)C2)CC(c2cc(F)cc(F)c2)=NO1 (mixture of isomers) [II-07],90,–,80,100,80,100,100,100,100,90,100,80,80,80,Herbicidal action against [%] VERPE (VERPE [20]): 80%; Herbicidal action against [%] POLCO (POLCO [22]): 100%; Herbicidal action against [%] VERPE (VERPE [23]): 100%; Herbicidal action against [%] ECHCG (ECHCG [17]): 90%; Herbicidal action against [%] VIOTR (VIOTR [18]): 80%
